In experiment [1] the target is T1, SSTR-5 (Homo sapiens, UniProt P35346).
T1 construct: expressed in transfected cells
Briefly: Multiplexed internalization assay, SSTR-5 readout (Atto590-SST14) in mixed NK3R and SSTR5 cells. It counts as cell-based. Conditions: for SSTR-5 internalization with excess competitor: 1 μM competitor (FIG. 5).

The target of experiment [2] is recombinant human Somatostatin receptor 5 (Homo sapiens, UniProt P35346). Conditions: 1 μM competitor, 100 nM Atto590-SST14, 30 minutes at 37° C. (FIG. 1).
The target of experiment [3] is T2, NK3R (Homo sapiens, UniProt P29371).
T2 sequence (P29371 1-465): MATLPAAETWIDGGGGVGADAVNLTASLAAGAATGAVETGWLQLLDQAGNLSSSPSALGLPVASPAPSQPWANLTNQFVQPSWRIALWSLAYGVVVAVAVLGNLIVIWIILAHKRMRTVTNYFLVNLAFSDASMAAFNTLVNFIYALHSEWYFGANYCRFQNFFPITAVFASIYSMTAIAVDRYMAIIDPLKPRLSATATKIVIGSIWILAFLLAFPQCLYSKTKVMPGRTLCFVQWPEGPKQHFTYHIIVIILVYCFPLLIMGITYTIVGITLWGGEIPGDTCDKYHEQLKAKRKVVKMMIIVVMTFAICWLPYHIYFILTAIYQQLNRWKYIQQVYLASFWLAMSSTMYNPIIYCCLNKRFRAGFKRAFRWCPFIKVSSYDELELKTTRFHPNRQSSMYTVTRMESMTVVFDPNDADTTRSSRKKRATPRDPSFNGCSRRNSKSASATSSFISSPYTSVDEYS
Conditions: mixed cells.

Experiment [4] has as its target T3, GHSR-1a receptor (Homo sapiens, UniProt Q92847).
T3 construct: expressed in transfected cells
Put plainly: Internalization of GHSR-1a with Ghrelin(1-19)-Texas Red (high content ligand tracking). Format: cell-based. To be noted: 1 μM competitor, 10 nM Ghrelin(1-19)-Texas Red, 30 minutes at 37° C. (FIG. 7).

For experiment [5], the target named is T2, NK3R. To be noted: 1 μM competitor, 1 nM Atto655-NKB, 30 minutes at 37° C. (FIG. 3).
The target of experiment [6] is hV1bR (Homo sapiens, UniProt P47901). To be noted: 100 nM competitor, 5 nM BO-TMR-vasopressin, 30 minutes at 37° C. (FIG. 9).
Sequence of hV1bR (P47901 whole entry): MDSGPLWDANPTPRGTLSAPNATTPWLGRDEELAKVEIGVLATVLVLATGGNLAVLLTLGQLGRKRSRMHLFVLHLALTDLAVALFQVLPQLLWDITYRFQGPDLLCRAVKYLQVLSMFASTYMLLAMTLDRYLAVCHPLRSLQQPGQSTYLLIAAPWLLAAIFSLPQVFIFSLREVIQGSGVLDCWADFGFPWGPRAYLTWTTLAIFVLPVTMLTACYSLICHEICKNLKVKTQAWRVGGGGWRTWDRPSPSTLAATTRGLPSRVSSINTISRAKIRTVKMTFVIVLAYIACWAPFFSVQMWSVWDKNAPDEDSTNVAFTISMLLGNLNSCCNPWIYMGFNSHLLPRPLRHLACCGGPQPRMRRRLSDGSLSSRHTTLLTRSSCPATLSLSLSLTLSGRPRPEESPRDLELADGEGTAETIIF

T1 sequence (P35346 whole entry): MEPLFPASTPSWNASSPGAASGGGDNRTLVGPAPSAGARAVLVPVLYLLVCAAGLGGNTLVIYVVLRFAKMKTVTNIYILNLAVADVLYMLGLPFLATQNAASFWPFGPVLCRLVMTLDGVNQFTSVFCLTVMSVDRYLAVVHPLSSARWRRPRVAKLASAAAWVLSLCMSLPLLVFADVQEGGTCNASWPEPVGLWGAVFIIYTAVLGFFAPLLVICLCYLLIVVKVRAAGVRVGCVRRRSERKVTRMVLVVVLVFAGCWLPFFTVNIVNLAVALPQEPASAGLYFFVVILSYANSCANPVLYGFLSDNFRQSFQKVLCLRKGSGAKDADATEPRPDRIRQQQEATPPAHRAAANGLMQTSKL
T3 sequence (Q92847 whole entry): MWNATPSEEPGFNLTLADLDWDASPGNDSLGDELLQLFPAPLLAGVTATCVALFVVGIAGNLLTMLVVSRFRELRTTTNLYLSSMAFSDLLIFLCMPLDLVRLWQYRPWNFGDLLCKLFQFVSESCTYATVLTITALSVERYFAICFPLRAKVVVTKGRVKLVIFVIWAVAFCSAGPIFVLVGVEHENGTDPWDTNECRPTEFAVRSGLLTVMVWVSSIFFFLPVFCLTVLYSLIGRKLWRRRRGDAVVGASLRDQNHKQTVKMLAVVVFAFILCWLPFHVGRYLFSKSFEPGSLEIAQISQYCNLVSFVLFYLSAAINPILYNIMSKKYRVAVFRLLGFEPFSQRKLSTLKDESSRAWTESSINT
Sequence of recombinant human Somatostatin receptor 5 (P35346 whole entry): as the sequence (P35346 whole entry) above

As for Somatostatin-14 [SST14], the “SSTR-5 internalization with excess competitor” value in experiment [1] is reported as “inhibited in a selective manner”. Besides, the “formation of fluorescent ERCs on co-incubation with excess competitor” value (“formation of fluorescent ERCs” below) in experiment [2] is reported as “block the formation of fluorescent ERCs”. Further, the “intensity of Atto655-NKB in ERCs with increasing amount of competitor” value in experiment [3] (dose response (FIG. 6)) is on record as “unchanged”.
For the compound `CC(C)(N)C(=O)N[C@H](COCc1ccccc1)C(=O)N1CCC2(CC1)CN(S(C)(=O)=O)c1ccccc12` [MK0677], the “formation of fluorescent ERCs” value in experiment [4] was “blocked the formation of fluorescent ERCs”.
As to `CC[C@H](NC(=O)c1c(C)c(-c2ccccc2)nc2ccccc12)c1ccccc1` [SB222200], the “formation of fluorescent ERCs” value in experiment [5] is “blocked the formation of fluorescent ERCs”. For the same compound, in experiment [1], the “SSTR-5 internalization with excess competitor” value is “no effect”. The “amount of internalized Atto590-SST14 with increasing amount of competitor” value in experiment [1] (dose response (FIG. 6)) is recorded as “unaffected”. The “NK3R mediated internalization of fluorescent ligand with excess competitor” value in experiment [3] (1 μM competitor (FIG. 5)) is “blocked”.
As to Arg-8-Vasopressin, in experiment [6], the “formation of fluorescent ERCs” value is recorded as “blocked the formation of fluorescent ERCs in most cells”.

The record behind these values is patent US20060105393A1, “Ligand-receptor tracking assays” (priority 2004, published 2006).
